# Results from article PMC5854716, “Synthesis, molecular docking, ctDNA interaction, DFT calculation and evaluation of antiproliferative and anti-Toxoplasma gondii activities of 2,4-diaminotriazine-thiazole derivatives” (Medicinal Chemistry Research, 2018).
# Key:
# mouse L929 fibroblast = test: Cell viability assay (MTT), L929; assay type: cell-based; details: 24 h; for CC30 L929: concentration for 30% proliferation inhibition
# Procedure: The epithelial cell line VERO (ATCC-Catalog No. CCL-81^TM), derived from the kidney of the African green monkey, Cercopithecus aethiops and fibroblast cell line L-929 (ATCC-Catalog No. CCL-1^TM), derived from Mus musculus (http://www.atcc.org) were grown in Iscoves’s Modified Dulbecco’s Medium (IMDM) supplemented with 10% (v/v) fetal bovine serum (FBS), plus 2 mM L-glutamine, 100 U/ml penicillin, 100.00 µg/ml streptomycin, 5 × 10^−5 M 2-mercaptoethanol and maintained at 37 °C in a 10% CO2 atmosphere. Subcultures were performed via enzymatic cell dissociation in 0.25% trypsin. After dissociation, the cells were placed in culture medium at 4 °C with 10% FBS to inhibit the action of trypsin. The isolated cells were centrifuged for 10 min at 1000×g at 4 °C, and the cells were grown in new bottles. This procedure was repeated when cells reached a confluence of ~90%. All commercial reactants and solvents were purchased from either Sigma-Aldrich Laborchemikalien GmbH (Dzitko et al. [2014]).
# Suspensions of the compounds 4a–l were freshly prepared (5 mg/ml DMSO) before the cells were exposed, and diluted to appropriate concentrations; 0.9, 1.8, 3.9, 7.8, 15.6, 31.2, 62.5, and 125.00 μg/ml with the culture medium. Cells treated with 2.5% DMSO-solvent served as a control in each experiment.
# The effects of tested compounds on the viability of mouse fibroblasts L929 and […] VERO cells were evaluated using the MTT assay. The MTT assay was used according to international standards: ISO 10993-5:2009 (Tests for in vitro cytotoxicity; http://www.iso.org/iso/catalogue_detail.htm? csnumber = 36406). L929 and VERO cells were plated into 96-well plates at a density of 1.0 × 10^4/100 μl/well in culture medium and allowed to attach for 24 h before treatment. Afterwards, culture medium in the plates was replaced by 100 μl compounds suspension at concentration of 0–125 μg/ml and the cells were exposed for 24 h. Then 1 mg/ml MTT (50 μl/well) was added to each well and incubated at 37 °C, 10 % CO2 for 2 h. Mitochondrial dehydrogenases of viable cells reduce the yellowish water-soluble MTT to water-insoluble formazan crystals, which were solubilized with dimethyl sulfoxide (DMSO). The cell culture medium was aspirated cautiously, after which 150 μl DMSO was added to each well and mixed thoroughly. Optical density (OD) was read on the ELISA reader (Multiskan EX, Labsystems; http://www.mtxlsi.com/multiskan_EX.htm) at 550 nm. The results were expressed as percentage viability compared with the treated 2.5% DMSO controls. All experiments were performed in triplicate.
# [1] = test system: normal mouse fibroblast Balb/3T3 cells; test: In vitro cytotoxicity (SRB), Balb/3T3; assay type: cell-based; details: mean ± SD; for IC50 Balb/3T3: 72 h exposure; for IC50: Mus musculus, BALB/3T3, 72 h exposure
# Procedure: Biphenotypic B myelomonocytic leukemia MV4-11, human lung carcinoma A549, human breast carcinoma MCF-7, and normal mouse fibroblast BALB/3T3 cells were obtained from American Type Culture Collection (Rockville, Maryland, USA). All the cell lines are being maintained at the Institute of Immunology and Experimental Therapy, Wroclaw, Poland. MV4-11 cells were cultured in RPMI 1640 medium (Gibco, UK) with 2 mM L-glutamine adjusted to contain 1.0 mM sodium pyruvate, and 10% fetal bovine serum (FBS) (all from Sigma-Aldrich, Germany). A549 cells were cultured in RPMI 1640+ Opti-MEM (1:1) (both from Gibco, UK), MCF-7 cells in Eagle medium (IIET, Wroclaw, Poland), BALB/3T3 in Dulbecco medium (IIET, Poland) supplemented with 2 mM L-glutamine and 1.0 mM sodium pyruvate, 10% fetal bovine serum (all from Sigma-Aldrich, Germany). The MCF-7 cell culture was supplemented with 0.8 mg/l of insulin (Sigma-Aldrich, Germany). All culture media were supplemented with 100 units/ml penicillin, and 100 µg/ml streptomycin (both from Polfa Tarchomin S.A., Poland). All cell lines were grown at 37 °C with 5% CO2 humidified atmosphere (Łączkowski et al. [2014], [2016a]). Prior to usage, the compounds were dissolved in DMSO and culture medium (1: 9) to the concentration of 1 mg/ml, and subsequently diluted in culture medium to reach the required concentrations (0.1, 1, 10, and 100 µg/ml) (Łączkowski et al. [2014], [2016a]). Twenty-four hours prior to the addition of the tested compounds, the cells counted using Burker hemocytometer were plated in 96-well plates (Sarstedt, Germany) at a density of 1 × 10^4 cells per well. The assay was performed after 72 h of exposure to varying concentrations of the tested agents. The in vitro cytotoxic effect of all agents was examined using the SRB assay for adherent cells (A549, MCF-7, and BALB/3T3) or MTT assay for leukemia cells (MV4-11) as described previously. […] Each compound in each concentration was tested in triplicate in a single experiment, which was repeated 3–7 times (Rubinstein et al. [1990]; Bramson et al. [1995]). Cells were attached to the bottom of plastic wells by fixing them with cold 50% TCA (trichloroacetic acid, POCH, Gliwice, Poland) on top of the culture medium in each well. The plates were incubated at 4 °C for 1 h and then washed five times with tap water. The cellular material fixed with TCA was stained with 0.1% sulforhodamine B (SRB, Sigma-Aldrich, Germany) and dissolved in 1% acetic acid (POCH, Gliwice, Poland) for 30 min. Unbound dye was removed by rinsing (4×) in 1% acetic acid. The protein-bound dye was extracted with 10 mM unbuffered Tris base (Sigma-Aldrich, Germany) for determination of the optical density (λ = 540 nm) in a computer-interfaced, 96-well Synergy H4 (BioTek Instruments USA) photometer microtiter plate reader (Sidoryk et al. [2012]).
Compound,Viability L929 (mouse L929 fibroblast; 0.9 µg/ml),Viability L929 (mouse L929 fibroblast; 1.8 µg/ml),Viability L929 (mouse L929 fibroblast; 3.9 µg/ml),Viability L929 (mouse L929 fibroblast; 7.8 µg/ml),Viability L929 (mouse L929 fibroblast; 15.6 µg/ml),Viability L929 (mouse L929 fibroblast; 31.2 µg/ml),Viability L929 (mouse L929 fibroblast; 62.5 µg/ml),CC30 L929 (mouse L929 fibroblast),IC50 Balb/3T3 [1],Viability L929 (mouse L929 fibroblast; 125.0 µg/ml),IC50 [1]
"C/C(=N\Nc1nc(-c2ccc3[nH]c(=O)oc3c2)cs1)c1ccc(Nc2nc(N)nc(N)n2)cc1 [Compound 4l, (E)-6-(2-(2-(1-(4-(4,6-diamino-1,3,5-triazin-2-yloamino)phenyl)ethylidene)hydrazinyl)thiazol-4-yl)-benzo[d]oxazol-2(3H)-on]",103.88%,109.00%,103.03%,101.74%,105.02%,105.52%,108.10%,>62.5 µg/mL,>100 µg/mL,–,–
"CC(=O)Nc1ccc(-c2csc(N/N=C(\C)c3ccc(Nc4nc(N)nc(N)n4)cc3)n2)cc1 [Compound 4g, (E)-N^2-(4-(2-(2-(1-(4-(4,6-diamino-1,3,5-triazin-2-yloamino)phenyl)ethylidene)hydraziny)thiazol-4-yl)phenyl)-acetamide]",102.34%,102.12%,100.36%,98.86%,94.31%,99.83%,103.01%,>125.0 µg/mL,>100 µg/mL,105.39%,–
"C/C(=N\Nc1nc(-c2ccc(C)cc2)cs1)c1ccc(Nc2nc(N)nc(N)n2)cc1 [Compound 4c, (E)-N^2-(4-(1-(2-(4-(4-tolyl)-1,3-thiazol-2-yl)hydrazinylidene)ethyl)phenyl)-1,3,5-triazine-2,4,6-triamine]",–,–,–,–,–,–,–,>125.0 µg/mL,–,–,> 100 µg/mL
"C/C(=N\Nc1nc(-c2ccc(NS(C)(=O)=O)cc2)cs1)c1ccc(Nc2nc(N)nc(N)n2)cc1 [Compound 4j, (E)-N-(4-(2-(2-(1-(4-(4,6-diamino-1,3,5-triazin-2-yloamino)phenyl)ethylidene)hydrazinyl)thiazol-4-yl)phenyl)-methanesulfonamide]",98.90%,106.36%,104.20%,101.86%,100.71%,104.07%,102.92%,>125.0 µg/mL,>100 µg/mL,106.67%,–
"C/C(=N\Nc1nc(-c2ccc(I)cc2)cs1)c1ccc(Nc2nc(N)nc(N)n2)cc1 [Compound 4e, (E)-N^2-(4-(1-(2-(4-(4-iodophenyl)-1,3-thiazol-2-yl)hydrazinylidene)ethyl)phenyl)-1,3,5-triazine-2,4,6-triamine]",–,–,–,–,–,–,–,>125.0 µg/mL,–,–,> 100 µg/mL
"C/C(=N\Nc1nc(-c2ccc(Cl)c(Cl)c2)cs1)c1ccc(Nc2nc(N)nc(N)n2)cc1 [Compound 4i, (E)-N^2-(4-(1-(2-(4-(3,4-dichlorophenyl)-1,3-thiazol-2-yl)hydrazinylidene)ethyl)phenyl)-1,3,5-triazine-2,4,6-triamine]",–,–,–,–,–,–,–,>62.5 µg/mL,–,–,> 100 µg/mL
"C/C(=N\Nc1nc(-c2ccc(Br)cc2)cs1)c1ccc(Nc2nc(N)nc(N)n2)cc1 [Compound 4d, (E)-N^2-(4-(1-(2-(4-(4-bromophenyl)-1,3-thiazol-2-yl)hydrazinylidene)ethyl)phenyl)-1,3,5-triazine-2,4,6-triamine]",–,–,–,–,–,–,–,>125.0 µg/mL,–,–,65.2 ± 24.5 µg/mL
"C/C(=N\Nc1nc(-c2ccc(F)cc2)cs1)c1ccc(Nc2nc(N)nc(N)n2)cc1 [Compound 4a, (E)-N^2-(4-(1-(2-(4-(4-fluorophenyl)-1,3-thiazol-2-yl)hydrazinylidene)ethyl)phenyl)-1,3,5-triazine-2,4,6-triamine]",–,–,–,–,–,–,–,>125.0 µg/mL,–,–,62.6 ± 8.69 µg/mL
"C/C(=N\Nc1nc(-c2cc3ccccc3oc2=O)cs1)c1ccc(Nc2nc(N)nc(N)n2)cc1 [Compound 4f, (E)-3-(2-(2-(1-(4-(4,6-diamino-1,3,5-triazin-2-yloamino)phenyl)ethylidene)hydrazinyl)thiazol-4-yl)-2H-chromen-2-on]",98.99%,102.21%,101.95%,96.25%,100.89%,104.60%,109.54%,>125.0 µg/mL,>100 µg/mL,108.66%,–
"C/C(=N\Nc1nc(-c2ccc([N+](=O)[O-])cc2)cs1)c1ccc(Nc2nc(N)nc(N)n2)cc1 [Compound 4h, (E)-N^2-(4-(1-(2-(4-(4-nitrophenyl)-1,3-thiazol-2-yl)hydrazinylidene)ethyl)phenyl)-1,3,5-triazine-2,4,6-triamine]",–,–,–,–,–,–,–,>125.0 µg/mL,–,–,> 100 µg/mL
"C/C(=N\Nc1nc(-c2ccccc2)cs1)c1ccc(Nc2nc(N)nc(N)n2)cc1 [Compound 4k, (E)-N^2-(4-(1-(2-(4-phenyl-1,3-thiazol-2-yl)hydrazinylidene)ethyl)phenyl)-1,3,5-triazine-2,4,6-triamine]",–,–,–,–,–,–,–,>125.0 µg/mL,–,–,> 100 µg/mL
"C/C(=N\Nc1nc(-c2ccc(Cl)cc2)cs1)c1ccc(Nc2nc(N)nc(N)n2)cc1 [Compound 4b, (E)-N^2-(4-(1-(2-(4-(4-chlorophenyl)-1,3-thiazol-2-yl)hydrazinylidene)ethyl)phenyl)-1,3,5-triazine-2,4,6-triamine]",–,–,–,–,–,–,–,>125.0 µg/mL,–,–,> 100 µg/mL
